Activity and Imax data for seven compounds are collected here from ChEMBL document CHEMBL4177699, “Organoselenium compounds from purines: Synthesis of 6-arylselanylpurines with antioxidant and anticholinesterase activities and memory improvement effect” (Bioorg Med Chem, 2017).

Active and inactive are the calls of the source. No cut-off for these calls is given here.

For series [1], the target named is T1, Acetylcholinesterase (Mus musculus) (UniProt P21836).
T1 sequence (whole entry): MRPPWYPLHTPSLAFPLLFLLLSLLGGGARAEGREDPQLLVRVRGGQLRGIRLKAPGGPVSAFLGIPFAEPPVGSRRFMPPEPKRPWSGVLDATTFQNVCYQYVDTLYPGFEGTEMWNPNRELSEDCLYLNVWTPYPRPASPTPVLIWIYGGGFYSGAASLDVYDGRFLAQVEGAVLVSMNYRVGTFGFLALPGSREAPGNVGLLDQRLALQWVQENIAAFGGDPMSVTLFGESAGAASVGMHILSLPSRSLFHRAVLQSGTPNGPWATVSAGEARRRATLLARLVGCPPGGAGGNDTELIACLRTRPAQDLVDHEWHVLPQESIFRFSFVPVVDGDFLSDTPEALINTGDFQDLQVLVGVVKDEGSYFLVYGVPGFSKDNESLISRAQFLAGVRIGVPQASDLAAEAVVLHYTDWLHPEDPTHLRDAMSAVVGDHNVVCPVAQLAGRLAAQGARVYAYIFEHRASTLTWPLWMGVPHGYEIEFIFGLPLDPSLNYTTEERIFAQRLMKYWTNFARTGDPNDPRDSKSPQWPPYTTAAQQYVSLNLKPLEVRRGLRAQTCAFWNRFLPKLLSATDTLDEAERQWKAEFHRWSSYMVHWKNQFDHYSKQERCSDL
The series can be described thus: Inhibition of AChE in Swiss mouse cerebral cortex homogenate using acetylthiocholine as substrate assessed as acetylthiocholine level per mg protein at 1 uM preincubated for 2 mins followed by substrate addition by DTNB based assay (reference value: 9.6 +/- 0.5 umol/hr).

Series [2] is described as follows: Antioxidant activity assessed as ABTS radical scavenging activity at 10 uM after 30 mins (reference value: 100%). The class given is functional.
The nature of series [3]: Antioxidant activity assessed as ABTS radical scavenging activity at 100 uM after 30 mins (reference value: 100%). The series is classed as functional.
The nature of series [4]: Antioxidant activity assessed as DPPH radical scavenging activity at 1 uM after 30 mins (reference value: 100%). The class given is functional. On the technique in general: DPPH is a stable violet radical that fades when it is reduced.
Series [5] can be described thus: Antioxidant activity assessed as DPPH radical scavenging activity at 10 uM after 30 mins (reference value: 100%). The class given is functional.
In series [6] the target is T1, Acetylcholinesterase (Mus musculus). The series can be described thus: Inhibition of AChE in Swiss mouse cerebral cortex homogenate using acetylthiocholine as substrate assessed as acetylthiocholine level per mg protein at 200 uM preincubated for 2 mins followed by substrate addition by DTNB based assay (reference value: 9.6 +/- 0.5 umol/hr).
The nature of series [7]: Antioxidant activity assessed as ABTS radical scavenging activity at 1 uM after 30 mins (reference value: 100%). The class given is functional.
Series [8] can be described thus: Antioxidant activity assessed as DPPH radical scavenging activity at 100 uM after 30 mins (reference value: 100%). The class given is functional.
Series [9] in a line: Antioxidant activity assessed as ABTS radical scavenging activity at 200 uM after 30 mins (reference value: 100%). The class given is functional.
For series [10], the target named is T1, Acetylcholinesterase (Mus musculus). The series can be described thus: Inhibition of AChE in Swiss mouse cerebral cortex homogenate using acetylthiocholine as substrate assessed as acetylthiocholine level per mg protein at 100 uM preincubated for 2 mins followed by substrate addition by DTNB based assay (reference value: 9.6 +/- 0.5 umol/hr) (reference value: 9.6 +/- 0.5 umol/hr).

For series [11] the target is unchanged. The series can be described thus: Inhibition of AChE in Swiss mouse cerebral cortex homogenate using acetylthiocholine as substrate assessed as acetylthiocholine level per mg protein at 10 uM preincubated for 2 mins followed by substrate addition by DTNB based assay (reference value: 9.6 +/- 0.5 umol/hr).
Series [12] in a line: Antioxidant activity assessed as DPPH radical scavenging activity at 200 uM after 30 mins (reference value: 100%). The class given is functional.
The target in series [13] is T1, Acetylcholinesterase (Mus musculus). The series can be described thus: Inhibition of AChE in Swiss mouse cerebral cortex homogenate using acetylthiocholine as substrate assessed as acetylthiocholine level per mg protein at 200 uM preincubated for 2 mins followed by substrate addition by DTNB based assay relative to acetylthiocholine.
The test system of series [14] is Mus musculus. Kind of series: Toxicity in Swiss mouse assessed as impairment in exploratory behavior at 10 mg/kg, ig treated immediately post-training measured up to 4 mins by open-field test. The class given is organism-based. The note with it: in vivo, po.
The subject of series [15] is Mus musculus. Kind of series: Toxicity in Swiss mouse assessed as impairment in exploratory behavior at 10 mg/kg, ig treated 30 mins before test session measured up to 4 mins by open-field test. The class given is organism-based. The note with it: in vivo, po.
For series [16], the system named is Mus musculus. Kind of series: Cognitive enhancement activity in Swiss mouse assessed as increase in step-through latency at 10 mg/kg, ig treated 30 mins before test session measured 24 hrs after training trial by passive avoidance test relative to control. The class given is functional.
Series [17] has as its system Mus musculus. The series can be described thus: Toxicity in Swiss mouse assessed as impairment in exploratory behavior at 10 mg/kg, ig treated 30 mins before training measured up to 4 mins by open-field test. The class given is organism-based. To be noted: in vivo, po.
The subject of series [18] is Mus musculus. The series can be described thus: Toxicity in Swiss mouse assessed as impairment in locomotory activity at 10 mg/kg, ig treated 30 mins before training measured up to 4 mins by open-field test. The series is classed as organism-based. To be noted: in vivo, po.
The subject of series [19] is Mus musculus. The series can be described thus: Toxicity in Swiss mouse assessed as impairment in locomotory activity at 10 mg/kg, ig treated immediately post-training measured up to 4 mins by open-field test. The class given is organism-based. The note with it: in vivo, po.
In series [20] the test system is Mus musculus. Kind of series: Cognitive enhancement activity in Swiss mouse assessed as increase in step-through latency at 10 mg/kg, ig treated immediately post-training measured 24 hrs after training trial by passive avoidance test relative to control. The series is classed as functional.
Series [21] has as its system Mus musculus. Kind of series: Cognitive enhancement activity in Swiss mouse assessed as step-through latency at 10 mg/kg, ig treated 30 mins before training measured 24 hrs after training trial by passive avoidance test. The class given is functional, organism-based.
In series [22] the target is T1, Acetylcholinesterase (Mus musculus). The series can be described thus: Inhibition of AChE in Swiss mouse cerebral cortex homogenate using acetylthiocholine as substrate assessed as acetylthiocholine level per mg protein at 1 uM preincubated for 2 mins followed by substrate addition by DTNB based assay relative to acetylthiocholine.
In series [23] the test system is Mus musculus. The series can be described thus: Toxicity in Swiss mouse assessed as impairment in locomotory activity at 10 mg/kg, ig treated 30 mins before test session measured up to 4 mins by open-field test. The class given is organism-based. To be noted: in vivo, po.

As for `Clc1ccc([Se]c2ncnc3[nH]cnc23)cc1`, the Activity in series [1] came out at 7.2 µmol/h; in series [2], 98.4%; in series [3], 86.5%; in series [4], 100%; in series [5] it was 98.8%; in series [6], 7.8 µmol/h. In addition, the Activity came to 99.5% in [7]; 85.9% in series [8]; 72.6% in series [9]; 7.8 µmol/h in series [10]; 7.3 µmol/h in series [11]; 68% in series [12].
With `COc1ccc([Se]c2ncnc3[nH]cnc23)cc1`, the Activity was determined as 10.4 µmol/h in series [1]; 98.1% in series [2]; 97.1% in series [3]; 99.8% in series [4]; 99.7% in series [5]; 8.8 µmol/h in series [6]. Further, the Activity in series [7] worked out at 101%; in [8], 98.5%; in series [9], 93.5%; in series [10], 11 µmol/h; in [11], 11.3 µmol/h; in series [12] it was 97.5%.
With `Cc1ccccc1[Se]c1ncnc2[nH]cnc12`, the Activity in series [1] was 7.9 µmol/h; in [2], 96.9%; in [3], 97.7%; in series [4], 100%; in series [5] it was 100%; in series [6], 6.3 µmol/h. Also, the Activity was 99.3% in series [7]; 99.3% in [8]; 94.8% in series [9]; 7.1 µmol/h in series [10]; 7.6 µmol/h in [11]; 98.7% in series [12]. Moreover, the Imax in series [13] was 34.4%.
For `c1ccc([Se]c2ncnc3[nH]cnc23)cc1`, the Activity was 7.8 µmol/h in series [1]; 98.8% in series [2]; 93.2% in series [3]; 99.4% in series [4]; 99.4% in series [5]; 7.6 µmol/h in [6]. Also, the Activity in [7] came out at 99.9%; in series [8], 95.1%; in series [9], 86.5%; in series [10], 7.7 µmol/h; in [11], 7.6 µmol/h; in [12], 90.1%.
In the case of `Cc1ccc([Se]c2ncnc3[nH]cnc23)cc1`, the Activity amounted to 8.7 µmol/h in series [1]; 98% in [2]; 81.7% in series [3]; 101% in [4]; 99.7% in series [5]; 8.9 µmol/h in [6]. The Activity in series [7] worked out at 100%; in [8], 96.3%; in series [9], 61.5%; in series [10] it was 8.9 µmol/h; in series [11] it was 9.3 µmol/h; in series [12], 93%.
For the compound `Fc1ccc([Se]c2ncnc3[nH]cnc23)cc1`, the Activity in series [1] was 6.6 µmol/h; in series [2], 101%; in series [3], 99.7%; in [14] it was “Non-Toxic”; in series [4], 99.4%; in series [15], “Non-Toxic”. Besides, the Activity is 99.4% in series [5]; 44% in series [16]; “Non-Toxic” in series [17]; 6.6 µmol/h in [6]; 99.7% in series [7]; 98.6% in series [8]. Also, the Activity result is “Non-Toxic” in [18]; 96.9% in series [9]; 6.6 µmol/h in [10]; “Non-Toxic” in series [19]; 52% in [20]; 6.5 µmol/h in series [11]. Also, the Activity result in [23] was “Non-Toxic”; in series [12] it was 98%. In series [21], the result was inactive. Besides, the Imax in series [22] worked out at 31.2%.
For `FC(F)(F)c1cccc([Se]c2ncnc3[nH]cnc23)c1`, the Activity in [1] came out at 7.9 µmol/h; in [2], 98.9%; in series [3], 97.9%; in series [4] it was 99.7%; in series [5] it was 99.4%; in series [6], 8.2 µmol/h. Moreover, the Activity came to 99.4% in series [7]; 99.4% in series [8]; 97.6% in series [9]; 8.2 µmol/h in [10]; 8.9 µmol/h in [11]; 99% in series [12].
